Reference: patent publication US20050048122A1, “Method for stabalizing timolol concentration” (Pharmacia & Upjohn Company, priority 2003, published 2005)

Assay: Storage of the aqueous ophthalmic composition in polyethylene bottles: concentration of active ingredient over time
Type: physicochemical
Settings: for concentration upon storage at low temperature / concentration upon storage at room temperature: polyethylene bottles; for concentration upon storage at low temperature: low (2-8° C.) temperature
Description: The ophthalmic products XALATAN® (comprising approximately 50 μg/ml latanoprost) and XALCOM® (comprising approximately 50 μg/ml latanoprost and 5 mg/ml timolol) are packaged in bottles. The bottle is typically made of clear low-density polyethylene with a clear low-density polyethylene dropper tip, a high-density polyethylene screw cap, and a clear low-density polyethylene overcap. Unopened bottles are stored at 2-8° C.
While storage at recommended temperature has proven to be an effective way of maintaining product stability of the ophthalmic products, it would be desirable to store such ophthalmic products at room temperature for prolonged periods without adversely affecting the concentration(s) of the active ingredient(s).
Following extensive research, a better understanding of the above-mentioned phenomenon has now been achieved. When the polyethylene packages are stored, moisture from the composition is lost to the atmosphere. Moreover, prostaglandin itself is absorbed into or adsorbed to the bottle resin and thus removed from the composition. […] Thus, the concentration of timolol increases over time and may have undesired systemic effects upon administration to the eye. This net effect of this phenomenon is more pronounced at room temperature than at low temperature.

Row | concentration upon storage at low temperature | concentration upon storage at room temperature | Compound | loss to the atmosphere or absorption/adsorption by the package material (polyethylene packages on storage)
1 | maintained at a nearly constant level | maintained at a nearly constant level | CC(C)OC(=O)CCC/C=C\C[C@@H]1[C@@H](CC[C@@H](O)CCc2ccccc2)[C@H](O)C[C@@H]1O [latanoprost] | 
2 | maintained at a nearly constant level | increases gradually over time | CC(C)(C)NC[C@H](O)COc1nsnc1N1CCOCC1 [timolol, (S)-1-[(1,1-dimethylethyl)amino]-3-[ [4-(4-morpholinyl)-1,2,5-thiadiazol-3-yl]oxy]-2-propanol] | neither lost to the atmosphere nor absorbed/adsorbed by the package material to any large extent
